Read-outs that look alike come from different tables or passages of the source. Positions of bridges follow the written chain, without caps; N, C: chain ends. Residues, ends and D or L forms follow the SMILES beside them.
Tests used:
[1] = target: T1, hKCa3.1 (IKCa1, SK4) (Homo sapiens, UniProt O15554); test: Whole-cell patch-clamp, hKCa3.1 current in transfected CHO cells; format: cell-based; details: for reversibility of KCa3.1 inhibition / time to steady-state block of KCa3.1 / reduction of KCa3.1 current / inhibition at 0.1 µM / remaining current fraction (RCF, I/I0): 100 nM; for reversibility of KCa3.1 inhibition: then toxin-free solution; for time to steady-state block of KCa3.1: 5–6 consecutive traces; for time to steady-state block of KCa3.1 / remaining current fraction (RCF, I/I0) / time to recovery from KCa3.1 block: n = 5; for reduction of KCa3.1 current: representative record; for inhibition at 0.1 µM / potency estimated from few doses: CHO; for inhibition at 0.1 µM: read-out: inhibition of KCa3.1 current; for potency estimated from few doses / remaining current fraction (RCF, I/I0): KCa3.1; for potency estimated from few doses: estimated from a single concentration (100 nM), bimolecular 1:1 interaction, read-out: estimated IC50; for remaining current fraction (RCF, I/I0): mean ± SEM; for time to recovery from KCa3.1 block: toxin-lacking solution after 100 nM
T1 construct: expressed in transfected cells; host or cells: CHO cells, transient transfection (Lipofectamine 2000); plasmid a gift of H. Wulff
Description: The scorpion toxins from the α-KTx 2 family also modulate the function of Ca^2+-activated potassium channels, in addition to Kv1 channels. Therefore, we investigated the activity of Cvill6 and Cvill7 toxins on three different types of Ca^2+-activated K^+ channels: (1) hKCa2.2 (SK2), the small-conductance Ca^2+-activated channel; (2) hKCa3.1 (IKCa1, SK4), the intermediate-conductance Ca^2+-activated channels, mainly expressed in T lymphocytes; and (3) mKCa1.1 (BK or MaxiK), the large-conductance voltage- and Ca^2+- activated channel of mice. Appropriate depolarization protocols were applied to record the K^+ current through respective KCa channels as shown in the inset of each panel in Figure 6A–C. […] Cvill6 reduced ~40% of the KCa3.1 current (Figure 6C), where the RCF value was 0.73 ± 0.05 (n = 5) at 100 nM (Figure 6D). On the other hand, Cvill7 inhibited ~25% of the current at the same concentration (Figure 6C), with an RCF value 0.84 ± 0.03 (n = 5) (Figure 6D). The time course of inhibition of KCa3.1 currents at 100 nM of Cvill6 or Cvill7 is shown in Figure 6E and Figure 6F, respectively. The normalized peak currents (see Section 2.4 or Section 5 for details) for individual cells (n = 5) were averaged at each time point and plotted as a function of time. […] The recovery from the block with Cvill6 to the initial peak current occurred in 4–5 consecutive traces (~0.8 min) and in the case of Cvill7 it took only 2–3 consecutive traces (~0.5 min) after perfusing the cell with toxin-lacking solution. […] The quantity of native toxins was insufficient to conduct the full dose–response curves at this high concentration range (see above).
Chinese hamster ovary (CHO) cells (generously provided by Yosef Yarden, Weizmann Institute of Science, Rehovot, Israel) or human embryonic kidney (HEK293) cells were cultured and maintained in Dulbecco’s modified Eagle medium (DMEM, Thermo Fisher Scientific, Waltham, MA, USA) supplemented with 2 mM L-glutamine, 10% fetal bovine serum (FBS), 100 µg/mL streptomycin, and 100 U/mL penicillin-g (Sigma-Aldrich, Budapest, Hungary) following standard culturing conditions. For transient expression of ion channels, CHO cells were transfected using the Lipofectamine 2000 kit (Invitrogen, Waltham, MA, USA) following the manufacturer’s instructions with plasmids encoding specific ion channels, including hKv1.1 (KCNA1 gene), hKv1.2 (KCNA2 gene), and hKv1.5 (KCNA5 gene) in a pCMV6-AC-GFP vector (OriGene Technologies), hKCa2.2 (KCNN2 gene) in a pCDN3 plasmid (for this transfection a GFP containing plasmid was co-transfected, courtesy of Bernard Attali, Tel Aviv University, Tel Aviv, Israel), and hKCa3.1 (KCNN4 gene) in a pEGFP-C1 vector (a kind gift by H. Wulff, University of California, Davis, CA, USA). Cells expressing GFP were identified using a Nikon TE 2000U fluorescence microscope (Nikon, Tokyo, Japan) with bandpass filters set to 455–495 nm for excitation and 515–555 nm for emission. Electrophysiological recordings were typically conducted 24 to 48 h after transfection.
The extracellular solution (bath solution) for both Kv and KCa channels consisted of 145 mM NaCl, 5 mM KCl, 2.5 mM CaCl2, 1 mM MgCl2, 10 mM HEPES, and 5.5 mM glucose, pH 7.35, and osmolarity between 302 and 308 mOsM/L. For positive control solutions containing various concentrations of tetraethylammoniums (TEA^+), Na^+ was substituted with TEA-Cl in equimolar concentration in the bath solution and all other ingredients remained unchanged. To avoid toxin adsorption onto the plastic surfaces of the perfusion system, 0.1 mg/mL of bovine serum albumin (BSA, Sigma-Aldrich, Budapest, Hungary) was also added into all bath solutions prior to the patch-clamp assay. […]

[2] = target: T2, hKv1.2 (Homo sapiens, UniProt P16389); test: Whole-cell patch-clamp, hKv1.2 current in transiently transfected CHO cells; format: cell-based; details: for inhibition at 0.001 µM / koff / kon: CHO; for inhibition at 0.001 µM: 1 nM; for koff: calculated from τoff; for koff / kon: 100 pM Cvill7 (n = 4) or 100 nM Cvill6 (n = 5); for kon: calculated from τon and τoff; for selectivity for Kv1.2 over Kv1.3: IC50 ratio; for τon (development of block) / τoff (wash-out): mean ± SEM; for Hill coefficient (H): Hill equation fit of RCF values; for mode of block: inferred from Hill coefficients close to 1 and single-exponential kinetics; for reversibility of Kv1.2 block: wash-out with toxin-free solution
T2 construct: host or cells: CHO cells, transient transfection (Lipofectamine 2000)
Description: (§1) For current recordings, Kv1.1, Kv1.2, and Kv1.5 were transiently expressed in CHO cells while for Kv11.1 a stable HEK293 cell line was used. To record Kv1.3 currents human peripheral T lymphocytes were activated with Phytohemagglutinin A (PHA) to boost Kv1.3 expression and Ca^2+-free intracellular solution to prevent the KCa3.1 channel opening. […] Appropriate voltage protocols were applied to record the K^+ currents from voltage-clamped cells in whole-cell configurations. Toxins were freshly dissolved in the bath solution supplemented with 0.1 mg/mL BSA and applied to the patched cells via a gravity-fed micro-perfusion system with an approximate flow rate of 200 µL/min.
Chinese hamster ovary (CHO) cells (generously provided by Yosef Yarden, Weizmann Institute of Science, Rehovot, Israel) or human embryonic kidney (HEK293) cells were cultured and maintained in Dulbecco’s modified Eagle medium (DMEM, Thermo Fisher Scientific, Waltham, MA, USA) supplemented with 2 mM L-glutamine, 10% fetal bovine serum (FBS), 100 µg/mL streptomycin, and 100 U/mL penicillin-g (Sigma-Aldrich, Budapest, Hungary) following standard culturing conditions [52]. For transient expression of ion channels, CHO cells were transfected using the Lipofectamine 2000 kit (Invitrogen, Waltham, MA, USA) following the manufacturer’s instructions with plasmids encoding specific ion channels, including hKv1.1 (KCNA1 gene), hKv1.2 (KCNA2 gene), and hKv1.5 (KCNA5 gene) in a pCMV6-AC-GFP vector (OriGene Technologies), hKCa2.2 (KCNN2 gene) in a pCDN3 plasmid (for this transfection a GFP containing plasmid was co-transfected, courtesy of Bernard Attali, Tel Aviv University, Tel Aviv, Israel), and hKCa3.1 (KCNN4 gene) in a pEGFP-C1 vector (a kind gift by H. Wulff, University of California, Davis, CA, USA). […] Electrophysiological recordings were typically conducted 24 to 48 h after transfection.
Whole-cell currents were recorded using the patch-clamp technique in voltage-clamp mode, following standard protocols [73]. […] Micropipettes were made from GC150F-7.5 borosilicate capillaries (Harvard Apparatus Co., Holliston, MA, USA) using a Sutter P2000 laser puller with tip resistance generally ranging from 3–6 MΩ in the bath solution. Only recordings with a leak current at the holding potential (Vh) of <10% of the peak current at the test potential were included in the data analysis. All recordings were performed at room temperature (20–25 °C). Control and test solutions were perfused to the cells via a gravity-driven micro-perfusion system and AutoMate Perfusion Pencil Multi-Barrel Manifold Tip (AutoMate Scientific, Berkeley, CA, USA), with an approximate flow rate of 200 µL/min, and the excess amount of bath solution was continuously removed from the recording chamber using vacuum suction.
The duration of depolarization pulses was 15 ms for Kv1.3 and 50 ms for Kv1.1 and Kv1.5. However, for Kv1.2, 15–500 ms-long pulses were used to achieve the saturated peak current due to the variable activation kinetics of this channel [74].

[3] = system: hKv1.5; format: cell-based, human; details: 100 nM; ~3 min
Description: as §1
Chinese hamster ovary (CHO) cells (generously provided by Yosef Yarden, Weizmann Institute of Science, Rehovot, Israel) or human embryonic kidney (HEK293) cells were cultured and maintained in Dulbecco’s modified Eagle medium (DMEM, Thermo Fisher Scientific, Waltham, MA, USA) supplemented with 2 mM L-glutamine, 10% fetal bovine serum (FBS), 100 µg/mL streptomycin, and 100 U/mL penicillin-g (Sigma-Aldrich, Budapest, Hungary) following standard culturing conditions [52]. For transient expression of ion channels, CHO cells were transfected using the Lipofectamine 2000 kit (Invitrogen, Waltham, MA, USA) following the manufacturer’s instructions with plasmids encoding specific ion channels, including hKv1.1 (KCNA1 gene), hKv1.2 (KCNA2 gene), and hKv1.5 (KCNA5 gene) in a pCMV6-AC-GFP vector (OriGene Technologies), hKCa2.2 (KCNN2 gene) in a pCDN3 plasmid (for this transfection a GFP containing plasmid was co-transfected, courtesy of Bernard Attali, Tel Aviv University, Tel Aviv, Israel), and hKCa3.1 (KCNN4 gene) in a pEGFP-C1 vector (a kind gift by H. Wulff, University of California, Davis, CA, USA). […] Electrophysiological recordings were typically conducted 24 to 48 h after transfection. […]
Whole-cell currents were recorded using the patch-clamp technique in voltage-clamp mode, following standard protocols [73]. […]

[4] = representative record, read-out: inhibition of hKv1.2 current

T1 sequence (O15554 whole entry): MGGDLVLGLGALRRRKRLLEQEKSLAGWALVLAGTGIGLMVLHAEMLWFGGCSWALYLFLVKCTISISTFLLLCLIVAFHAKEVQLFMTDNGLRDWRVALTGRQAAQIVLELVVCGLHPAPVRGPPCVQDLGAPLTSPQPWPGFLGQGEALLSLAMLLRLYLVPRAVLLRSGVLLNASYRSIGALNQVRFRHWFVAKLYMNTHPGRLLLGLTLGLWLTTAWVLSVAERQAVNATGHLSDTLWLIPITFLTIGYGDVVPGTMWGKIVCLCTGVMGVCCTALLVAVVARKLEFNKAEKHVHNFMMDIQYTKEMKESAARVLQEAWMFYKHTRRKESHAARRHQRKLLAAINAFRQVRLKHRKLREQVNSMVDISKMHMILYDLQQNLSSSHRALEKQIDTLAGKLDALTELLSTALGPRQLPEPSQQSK
T2 sequence (P16389 whole entry): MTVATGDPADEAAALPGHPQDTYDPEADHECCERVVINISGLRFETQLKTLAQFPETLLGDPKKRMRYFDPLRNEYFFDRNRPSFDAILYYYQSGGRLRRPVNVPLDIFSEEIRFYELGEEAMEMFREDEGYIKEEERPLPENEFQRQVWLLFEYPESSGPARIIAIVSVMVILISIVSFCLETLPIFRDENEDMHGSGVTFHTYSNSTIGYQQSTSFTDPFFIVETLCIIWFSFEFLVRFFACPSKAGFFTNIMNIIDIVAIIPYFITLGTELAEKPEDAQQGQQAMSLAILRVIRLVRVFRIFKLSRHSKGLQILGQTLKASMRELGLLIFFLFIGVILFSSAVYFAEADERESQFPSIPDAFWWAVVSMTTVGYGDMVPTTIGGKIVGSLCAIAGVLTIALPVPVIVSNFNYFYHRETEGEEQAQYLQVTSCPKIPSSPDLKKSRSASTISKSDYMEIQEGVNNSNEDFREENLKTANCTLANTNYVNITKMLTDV

Structure (SMILES)	reversibility of KCa3.1 inhibition [1]	time to steady-state block of KCa3.1 [1]	reduction of KCa3.1 current [1]	inhibition at 0.1 µM [1] [%]	potency estimated from few doses [1] [nM]	remaining current fraction (RCF, I/I0) [1]	time to recovery from KCa3.1 block [1]	IC50 [2] [nM]	inhibition at 0.001 µM [2, 4] [%]	koff ([2]; Kv1.2) [s⁻¹]	kon ([2]; Kv1.2) [M⁻¹ s⁻¹]	selectivity for Kv1.2 over Kv1.3 [2]	Hill coefficient (H) ([2]; Kv1.2)	mode of block [2]	reversibility of Kv1.2 block [2]	effect on hKv1.5 current [3]	also measured
CC[C@H](C)[C@H](N)C(=O)N[C@@H](Cc1ccccc1)C(=O)N[C@H](C(=O)N[C@@H](CC(N)=O)C(=O)N[C@H](C(=O)N[C@@H](CCCCN)C(=O)N[C@H]1CSSC[C@@H]2NC(=O)[C@H](CCCCN)NC(=O)CNC(=O)CNC(=O)[C@H](C)NC(=O)[C@H](Cc3c[nH]cn3)NC(=O)[C@H](CCC(N)=O)NC(=O)CNC(=O)[C@H](Cc3ccccc3)NC(=O)[C@H](CCCNC(=N)N)NC(=O)[C@H](CC(=O)O)NC(=O)[C@H](CCCCN)NC(=O)[C@@H]3CSSC[C@@H](C(=O)N[C@@H](Cc4ccc(O)cc4)C(=O)N4CCC[C@H]4C(=O)O)NC(=O)[C@H](CCCCN)NC(=O)[C@H](CSSC[C@H](NC(=O)[C@H](CCC(N)=O)NC(=O)[C@H](CCC(N)=O)NC(=O)[C@@H]4CCCN4C(=O)[C@H](CC(C)C)NC(=O)[C@H](CC(=O)O)NC1=O)C(=O)N[C@@H](CC(C)C)C(=O)N[C@@H](CCCNC(=N)N)C(=O)N1CCC[C@H]1C(=O)N3)NC(=O)[C@H](CCCCN)NC(=O)CNC(=O)[C@H](CC(N)=O)NC(=O)[C@H]([C@@H](C)CC)NC2=O)C(C)C)[C@@H](C)CC [Cvill6] (H-IFINVKCDLPQQCLRPCKDRFGQHAGGKCINGKCKCYP-OH; disulfide 7-29, 13-34, 17-36 (inferred); N-terminus and C-terminus assumed)	inhibit the KCa3.1 channel reversibly with quick association and dissociation kinetics	~ 1 min	~ 40%	~27	~268	0.73 ± 0.05	~ 0.8 min	3.9 ± 0.27	~28	0.00091	290000	~ 215 fold	1.4	pore blockers that interact with channels with 1:1 stoichiometry in a bimolecular interaction	reversible but with very slow dissociation kinetics	no change in current amplitudes	affinity for KCa3.1 relative to Cvill7 ([1]; estimated IC50 comparison): two-fold higher affinity; steady-state block of Kv1.2 ([2]; 100 nM, n = 5): 97 ± 1.2%; inhibition at 0.001 µM ([2]; screening summary (Figure 3G), read-out: inhibition of hKv1.2 currents): ~16%; times less potency for Kv1.2 than Cvill7 ([2]; IC50 comparison): 244 times; τon (development of block) ([2]; Kv1.2, 100 nM, n = 5): 35 ± 2.7 s; τon, representative fit ([2]; Kv1.2, 100 nM, representative fit (Figure S5C)): 38.7 s; τoff (wash-out) ([2]; Kv1.2, after 100 nM, n = 5): 1287 ± 259 s; τoff, representative fit ([2]; Kv1.2, after 100 nM, representative fit (Figure S5C)): 776.4 s; Kd ([2]; Kv1.2, koff/kon ratio, 100 nM, read-out: dissociation constant (Kd), koff/kon): 3.3 nM; recovery of Kv1.2 current, up to % of initial current ([2]; toxin-free solution after 100 nM): up to 65%
CC[C@H](C)[C@H](NC(=O)[C@H](Cc1ccccc1)NC(=O)[C@@H](N)[C@@H](C)O)C(=O)N[C@@H](CC(N)=O)C(=O)N[C@H](C(=O)N[C@@H](CCCCN)C(=O)N[C@H]1CSSC[C@@H]2NC(=O)[C@H](CCCCN)NC(=O)CNC(=O)CNC(=O)[C@H](C)NC(=O)[C@H](Cc3c[nH]cn3)NC(=O)[C@@H]3CCCN3C(=O)CNC(=O)[C@H](Cc3ccc(O)cc3)NC(=O)[C@H](CC(C)C)NC(=O)[C@H](CC(=O)O)NC(=O)[C@H](CCCCN)NC(=O)[C@@H]3CSSC[C@@H](C(=O)N[C@@H](Cc4ccc(O)cc4)C(=O)N[C@@H](CC(N)=O)C(=O)N[C@@H](CC(N)=O)C(N)=O)NC(=O)[C@H](CCCCN)NC(=O)[C@H](CSSC[C@H](NC(=O)[C@H](CCC(N)=O)NC(=O)[C@H](CCCCN)NC(=O)[C@@H]4CCCN4C(=O)[C@H](CO)NC(=O)[C@H]([C@@H](C)O)NC1=O)C(=O)N[C@@H](CC(C)C)C(=O)N[C@@H](CCCCN)C(=O)N1CCC[C@H]1C(=O)N3)NC(=O)[C@H](CCCCN)NC(=O)CNC(=O)[C@H](CC(N)=O)NC(=O)[C@H](CCSC)NC2=O)C(C)C [Cvill7] (H-TFINVKCTSPKQCLKPCKDLYGPHAGGKCMNGKCKCYNN-NH2; disulfide 7-29, 13-34, 17-36; N-terminus and C-terminus assumed)	inhibit the KCa3.1 channel reversibly with quick association and dissociation kinetics	~ 1 min	~ 25%	~16	~527	0.84 ± 0.03	~ 0.5 min	0.016 ± 0.00156	> 97	0.00017	1e+08 ± 1.5e+07	~ 450 fold	1.03	pore blockers that interact with channels with 1:1 stoichiometry in a bimolecular interaction	virtually irreversible inhibitor of Kv1.2	did not show any effect	time to apparent saturation of Kv1.2 block ([2]; 100 pM): 7 to 8 min; loss of Kv1.2 current at saturation ([2]; 100 pM, n = 4): 96 ± 1.4%; selectivity for Kv1.2 over KCa3.1 ([2]; KCa3.1 IC50 estimated from a single concentration): > 32,000 fold; selectivity for Kv1.2 over Kv1.1 ([2]; Kv1.1 IC50 estimated from a single concentration): ~ 12,000 fold; τon, representative fit ([2]; Kv1.2, 100 pM, representative fit (Figure S5A)): 75.3 s; τon (development of block) ([2]; Kv1.2, 100 pM, single-exponential fits cell-by-cell, n = 4): 104 ± 15 s; τoff (wash-out) ([2]; Kv1.2, after 100 pM, n = 4): 5978 ± 538 s; τoff, representative fit ([2]; Kv1.2, after 100 pM, representative fit (Figure S5A)): 7380 s; selectivity over several other ion channels ([2]; Kv1.2 vs several other ion channels): three orders of magnitude selectivity over several other ion channels; recovery of blocked Kv1.2 current ([2]; toxin-free solution for ~15 min after 100 pM): just one-fifth of the blocked current recovered
